This passage reports Km, Vmax and Ratio results from ChEMBL document CHEMBL1135102, “2-Amino-7-deazaadenine forms stable base pairs with cytosine and thymine” (Bioorg Med Chem Lett, 2002).

What all share (type): ADME
Data set [1] in a line: Kinetic parameter Km was determined.
The nature of data set [2]: Kinetic parameter Vmax was determined.
Data set [3] in a line: Efficiency expressed as ratio of Vmax to that of Km was determined.

For the compound `Nc1ncnc2c1ncn2[C@H]1C[C@H](O)[C@@H](COP(=O)(O)OP(=O)(O)OP(=O)(O)O)O1`, the Km in data set [1] turned out to be 22 µM. For the same compound, the Vmax in data set [2] was 0.994 pmol/U/min. For the same compound, in data set [3], the Ratio is 0.0452.
Consider `Nc1ccn([C@H]2C[C@H](O)[C@@H](COP(=O)(O)OP(=O)(O)OP(=O)(O)O)O2)c(=O)n1` [DEOXYCYTIDINE TRIPHOSPHATE], for which, in data set [1], the Michaelis constant (Km) came out at 25.6 µM. For the same compound, in data set [2], the Vmax was 18.7 pmol/U/min. Further, the Ratio in data set [3] turned out to be 0.73.
Consider `Nc1nc2c(ncn2[C@H]2C[C@H](O)[C@@H](COP(=O)(O)OP(=O)(O)OP(=O)(O)O)O2)c(=O)[nH]1` [DEOXYGUANOSINE TRIPHOSPHATE], for which the Michaelis-Menten constant (Km) in data set [1] was found to be 62 µM. In addition, the Vmax in data set [2] was 13.1 pmol/U/min. For the same compound, in data set [3], the Ratio is on record as 0.211.
